Source: patent publication US11661583B2, “Drug discovery platform for Duchenne cardiomyopathy” (University of Washington, priority 2015, dated 2023)
Structures can show the parent of a compound that is named as a salt. Where two headings read alike, the source gives them in different places.

Legend:
[1] = system: dystrophin deficient cardiomyocytes; assay: High-throughput hypotonic stress cell viability (intracellular ATP) screen; details: for Average of % viability: 384-well, 18 hours compound incubation, then 30 minutes at 12.5% normal osmolarity, CELLTITER-GLO, vs average of DMSO control wells, tested at 10^-8 to 10^-5 M, concentration not given; for Z score / Effect on viability in hypotonic stress screen (in words): primary screen; for Z score: data points ranked by Z score; for Effect on viability in hypotonic stress screen (in words): dose-response, FIG. 8
dystrophin locus = assay: SURVEYOR assay of guide RNA targeting efficiency in HEK293T cells; type: cell-based, human; details: FIG. 9A
From the text: (THERMO […], Waltham, Mass.) using primer set […] ID NO:3) and […] ID NO:4).

[2] = system: dystrophin deficient cardiomyocytes

Compound | Average of % viability [1] | Z score [1] | Effect on viability in hypotonic stress screen (in words) [1] | cutting efficiency (dystrophin locus) | Average of % viability [2]
CCCCCCCCCCCCCCCC(=O)OC/C=C(C)/C=C/C=C(C)/C=C/C1=C(C)CCCC1(C)C [RETINYL PALMITATE] | 236.79 ± 46.63% | 6.46 |  |  | 
O=C(O)C(O)C(O)C(=O)O.OCc1cccnc1 (centres unmarked) [NICOTINYL ALCOHOL TARTRATE] | 262.12 ± 57.89% | 7.61 |  |  | 
CCN(CC)CCOc1ccc2c(c1)C(=O)c1cc(OCCN(CC)CC)ccc1-2 [TILORONE] | 172.53 ± 15.79% | 3.56 |  |  | 
CN(C)c1nc(N(C)C)nc(N(C)C)n1 [ALTRETAMINE] | 188.22 ± 2.87% | 4.27 |  |  | 
CC(=O)O[C@H]1CC[C@@]2(C)[C@H](CC[C@@H]3[C@@H]2CC[C@]2(C)[C@@H](C4=CC(=O)OC4)[C@@H](OC(C)=O)C[C@]32O)C1 [GITOXIGENIN DIACETATE] | 177.20 ± 1.17% | 3.77 |  |  | 
COc1cc([C@@H]2c3cc4c(cc3[C@H](O)[C@H]3COC(=O)[C@H]23)OCO4)cc(OC)c1OC [PODOFILOX] | 168.46 ± 28.98% | 3.38 |  |  | 
O=C(O)CCCC[C@@H]1SC[C@@H]2NC(=O)N[C@@H]21 [BIOTIN] | 315.95 ± 51.89% | 10.04 |  |  | 
COC(=O)[C@H](c1ccccc1Cl)N1CCc2sccc2C1 [CLOPIDOGREL SULFATE] | 194.84 ± 50.3% | 4.57 |  |  | 
Nc1nc2c(ncn2COCCO)c(=O)[nH]1 [ACYCLOVIR] | 258.33 ± 14.16% | 7.44 |  |  | 
Nc1ccc(C(=O)NCC(=O)O)cc1 [AMINOHIPPURIC ACID] | 207.49 ± 7.09% | 5.14 |  |  | 
CC(C)(C)c1ccc(C(O)CCCN2CCC(C(O)(c3ccccc3)c3ccccc3)CC2)cc1 (centres unmarked) [TERFENADINE] | 211.28 ± 22.46% | 5.31 |  |  | 
CC(=O)OCC(=O)[C@@]1(O)CC[C@H]2[C@@H]3CCC4=CC(=O)CC[C@]4(C)[C@H]3C(=O)C[C@@]21C [CORTISONE ACETATE] | 205.92 ± 12.32% | 5.07 |  |  | 
COc1ncnc(NS(=O)(=O)c2ccc(N)cc2)c1OC [SULFADOXINE] | 195.32 ± 23.52% | 4.59 |  |  | 
O=C(O)c1cc(-c2ccccc2)nc2ccccc12 [CINCHOPHEN] | 168.44 ± 44.63% | 3.38 |  |  | 
CC(C)COCC(CN(Cc1ccccc1)c1ccccc1)N1CCCC1 (centres unmarked) [BEPRIDIL HYDROCHLORIDE] | 178.65 ± 3.48% | 3.84 |  |  | 
CN1C(=O)CC[C@H]1c1cccnc1 [COTININE] | 188.79 ± 56.0% | 4.30 |  |  | 
NC(=O)NO [HYDROXYUREA] | 187.65 ± 49.61% | 4.25 |  |  | 
CCCN(CCC)C(=O)C(CCC(=O)O)NC(=O)c1ccccc1 (centres unmarked) [PROGLUMIDE] | 175.69 ± 50.35% | 3.71 |  |  | 
CCCCc1oc2ccccc2c1C(=O)c1cc(I)c(OCCN(CC)CC)c(I)c1 [AMIODARONE HYDROCHLORIDE] |  | 3.37 |  |  | 
CN(C)/N=N/c1[nH]cnc1C(N)=O [DACARBAZINE] | 177.63 ± 45.35% | 3.79 |  |  | 
CN1CCc2c(c3ccccc3n2Cc2ccccc2)C1.CN1CCc2c(c3ccccc3n2Cc2ccccc2)C1.O=S(=O)(O)c1cccc2c(S(=O)(=O)O)cccc12 [MEBHYDROLIN NAPHTHALENE SULFONATE] |  | 3.58 |  |  | 
CCOC(=O)C1=C(C)NC(C)=C(C(=O)OC)C1c1cccc([N+](=O)[O-])c1 (centres unmarked) [NITRENDIPINE] | 275.48 ± 52.16% | 8.21 |  |  | 

Compound | Average of % viability [1] | Z score [1] | Effect on viability in hypotonic stress screen (in words) [1] | cutting efficiency (dystrophin locus) | Average of % viability [2]
CC(=O)c1ccc2c(c1)N(CCCN(C)C)c1ccccc1S2 [ACEPROMAZINE MALEATE] | 239.1 ± 38.37% | 6.57 |  |  | 
CC=CC(=O)N(CC)c1ccccc1C [CROTAMITON] | 178.25 ± 27.22% | 3.82 |  |  | 
COc1ccc(C[C@H](N)C(=O)N[C@H]2[C@@H](O)[C@H](n3cnc4c(N(C)C)ncnc43)O[C@@H]2CO)cc1 [PUROMYCIN HYDROCHLORIDE] | 187.84 ± 39.68% | 4.25 |  |  | 
CO[C@H]1C[C@H](O[C@@H]2/C(C)=C/C[C@@H]3C[C@@H](C[C@]4(CC[C@H](C)[C@@H](C5CCCCC5)O4)O3)OC(=O)[C@@H]3C=C(C)/C(=N/O)[C@H]4OC/C(=C\C=C\[C@@H]2C)[C@]43O)O[C@@H](C)[C@@H]1O [SELAMECTIN] | 172.91 ± 25.29% | 3.58 |  |  | 
C[C@@]12C(=O)OC(=O)[C@]1(C)[C@H]1CC[C@@H]2O1 [CANTHARIDIN] | 239.59 ± 14.65% | 6.59 |  |  | 
C[C@@H]1CC[C@@]2(OC1)O[C@H]1[C@@H](O)[C@H]3[C@@H]4CC[C@H]5C[C@@H](O[C@@H]6O[C@H](CO)[C@H](O[C@@H]7O[C@H](CO)[C@@H](O)[C@H](O[C@@H]8OC[C@@H](O)[C@H](O)[C@H]8O)[C@H]7O[C@@H]7O[C@H](CO)[C@H](O)[C@H](O[C@@H]8O[C@H](CO)[C@@H](O)[C@H](O)[C@H]8O)[C@H]7O)[C@H](O)[C@H]6O)[C@H](O)C[C@]5(C)[C@H]4CC[C@]3(C)[C@H]1[C@@H]2C [digitonin] |  | lowest Z score | dose-responsive toxicity |  | 
gRNA 4: guide sequence GCTTTGGTGGGAAGAAGTAGAGG (SEQ ID NO: 8) targeting first muscle exon of human dystrophin (listed as DNA, chemistry not fully specified) |  |  |  | 44.3% | 
O=C(CCCN1CCC(O)(c2ccc(Cl)cc2)CC1)c1ccc(F)cc1 [HALOPERIDOL] | 197.30 ± 19.03% | 4.68 |  |  | 
NC(=O)c1ccc([N+](=O)[O-])cc1Cl [AKLOMIDE] | 276.60 ± 12.37% | 8.26 |  |  | 
CC(C)NCC(O)COc1ccc(CC(N)=O)cc1 (centres unmarked) [ATENOLOL] |  | 3.51 |  |  | 
O=C1O[C@H]([C@@H](O)CO)C(O)=C1O [ASCORBIC ACID] | 181.48 ± 23.68% |  |  |  | 
C[C@]12CC[C@@H]3c4ccc(OS(=O)(=O)O)cc4CC[C@H]3[C@@H]1CCC2=O [ESTROPIPATE] | 208.65 ± 30.77% | 5.19 |  |  | 
COc1cccc2c1C(=O)c1c(O)c3c(c(O)c1C2=O)C[C@@](O)(C(=O)CO)C[C@@H]3O[C@H]1C[C@H](N)[C@H](O)[C@H](C)O1 [DOXORUBICIN] | 207.98 ± 34.29% | 5.16 |  |  | 
COCCOC(=O)C1=C(C)NC(C)=C(C(=O)OC(C)C)C1c1cccc([N+](=O)[O-])c1 (centres unmarked) [NIMODIPINE] | 292.38 ± 56.17% | 8.97 |  |  | 
CN1CCN(C(c2ccccc2)c2ccc(Cl)cc2)CC1 (centres unmarked) [CHLORCYCLIZINE HYDROCHLORIDE] | 238.84 ± 35.23% | 6.56 |  |  | 
C=CC1=C(C(=O)O)N2C(=O)[C@@H](NC(=O)/C(=N\O)c3csc(N)n3)[C@H]2SC1 | 185.70 ± 45.76% | 4.16 |  |  | 
CCCCC1C(=O)N(c2ccccc2)N(c2ccc(O)cc2)C1=O (centres unmarked) [OXYPHENBUTAZONE] |  | 3.76 |  |  | 176.96 ± 42.53%
COc1ccc2cc([C@H](C)CO)ccc2c1 [NAPROXOL] | 168.76 ± 2.61% | 3.39 |  |  | 
BENZALKONIUM CHLORIDE | 194.64 ± 23.10% | 4.56 |  |  | 
ANTIMYCIN A | 180.04 ± 1.89% | 3.90 |  |  | 
Cn1c(=O)c2c(ncn2C)n(C)c1=O [Caffeine] |  |  | demonstrated the opposite effect |  | 
